Active and inactive are the calls of the source. No cut-off for these calls is given here.
Columns and labels:
Rattus norvegicus [1] = experiment: Toxicity in icv dosed Sprague-Dawley rats assessed as decrease in body weight; type: organism-based; settings: in vivo, icv_or_intrathecal
[2] = molecular target: T1, Carnitine O-palmitoyltransferase 1, liver isoform (Rattus norvegicus, UniProt P32198); experiment: Inhibition of rat wild-type CPT1A expressed in yeast mitochondrial extracts using L-[methyl-3H]carnitine and palmitoyl-CoA as substrates preincubated for 1 min followed by substrate addition measured for 5 mins by radiometric method
T1 sequence (P32198 whole entry): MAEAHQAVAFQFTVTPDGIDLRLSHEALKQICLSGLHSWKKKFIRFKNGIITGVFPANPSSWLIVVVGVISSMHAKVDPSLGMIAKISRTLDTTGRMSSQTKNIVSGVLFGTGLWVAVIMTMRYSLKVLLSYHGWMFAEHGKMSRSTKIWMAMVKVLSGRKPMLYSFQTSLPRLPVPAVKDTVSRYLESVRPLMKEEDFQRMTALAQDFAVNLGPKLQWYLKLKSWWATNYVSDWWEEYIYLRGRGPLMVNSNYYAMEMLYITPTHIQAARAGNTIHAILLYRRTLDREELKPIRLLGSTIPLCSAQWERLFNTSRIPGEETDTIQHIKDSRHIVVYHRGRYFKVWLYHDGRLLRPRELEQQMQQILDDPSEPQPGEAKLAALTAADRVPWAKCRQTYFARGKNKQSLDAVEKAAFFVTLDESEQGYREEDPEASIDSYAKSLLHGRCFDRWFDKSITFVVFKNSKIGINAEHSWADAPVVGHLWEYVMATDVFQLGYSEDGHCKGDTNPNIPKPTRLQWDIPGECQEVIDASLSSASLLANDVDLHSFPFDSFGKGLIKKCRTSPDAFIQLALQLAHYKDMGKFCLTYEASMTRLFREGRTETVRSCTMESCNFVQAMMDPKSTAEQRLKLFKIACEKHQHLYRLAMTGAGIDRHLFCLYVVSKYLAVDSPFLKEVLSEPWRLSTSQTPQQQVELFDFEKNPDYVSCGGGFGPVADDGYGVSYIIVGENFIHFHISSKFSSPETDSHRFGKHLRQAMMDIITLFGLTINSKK

Mus musculus [3] = experiment: Toxicity in ip dosed C57/BL6J mouse assessed as decrease in body weight; type: organism-based; settings: in vivo
Mus musculus [4] = experiment: Toxicity in C57/BL6J mouse assessed as decrease in body weight at 15 mg/kg, ip administered once daily for 3 days measured after 2 days; type: organism-based; settings: in vivo, 48 h
Mus musculus [5] = experiment: Toxicity in C57/BL6J mouse assessed as decrease in food intake at 15 mg/kg, ip administered once daily for 3 days measured after 2 days; type: organism-based; settings: in vivo, 48 h
[6] = molecular target: Fatty acid synthase (Homo sapiens) (UniProt P49327); settings: 8 ug/ml
Chain of Fatty acid synthase (Homo sapiens) (P49327 whole entry, looked up): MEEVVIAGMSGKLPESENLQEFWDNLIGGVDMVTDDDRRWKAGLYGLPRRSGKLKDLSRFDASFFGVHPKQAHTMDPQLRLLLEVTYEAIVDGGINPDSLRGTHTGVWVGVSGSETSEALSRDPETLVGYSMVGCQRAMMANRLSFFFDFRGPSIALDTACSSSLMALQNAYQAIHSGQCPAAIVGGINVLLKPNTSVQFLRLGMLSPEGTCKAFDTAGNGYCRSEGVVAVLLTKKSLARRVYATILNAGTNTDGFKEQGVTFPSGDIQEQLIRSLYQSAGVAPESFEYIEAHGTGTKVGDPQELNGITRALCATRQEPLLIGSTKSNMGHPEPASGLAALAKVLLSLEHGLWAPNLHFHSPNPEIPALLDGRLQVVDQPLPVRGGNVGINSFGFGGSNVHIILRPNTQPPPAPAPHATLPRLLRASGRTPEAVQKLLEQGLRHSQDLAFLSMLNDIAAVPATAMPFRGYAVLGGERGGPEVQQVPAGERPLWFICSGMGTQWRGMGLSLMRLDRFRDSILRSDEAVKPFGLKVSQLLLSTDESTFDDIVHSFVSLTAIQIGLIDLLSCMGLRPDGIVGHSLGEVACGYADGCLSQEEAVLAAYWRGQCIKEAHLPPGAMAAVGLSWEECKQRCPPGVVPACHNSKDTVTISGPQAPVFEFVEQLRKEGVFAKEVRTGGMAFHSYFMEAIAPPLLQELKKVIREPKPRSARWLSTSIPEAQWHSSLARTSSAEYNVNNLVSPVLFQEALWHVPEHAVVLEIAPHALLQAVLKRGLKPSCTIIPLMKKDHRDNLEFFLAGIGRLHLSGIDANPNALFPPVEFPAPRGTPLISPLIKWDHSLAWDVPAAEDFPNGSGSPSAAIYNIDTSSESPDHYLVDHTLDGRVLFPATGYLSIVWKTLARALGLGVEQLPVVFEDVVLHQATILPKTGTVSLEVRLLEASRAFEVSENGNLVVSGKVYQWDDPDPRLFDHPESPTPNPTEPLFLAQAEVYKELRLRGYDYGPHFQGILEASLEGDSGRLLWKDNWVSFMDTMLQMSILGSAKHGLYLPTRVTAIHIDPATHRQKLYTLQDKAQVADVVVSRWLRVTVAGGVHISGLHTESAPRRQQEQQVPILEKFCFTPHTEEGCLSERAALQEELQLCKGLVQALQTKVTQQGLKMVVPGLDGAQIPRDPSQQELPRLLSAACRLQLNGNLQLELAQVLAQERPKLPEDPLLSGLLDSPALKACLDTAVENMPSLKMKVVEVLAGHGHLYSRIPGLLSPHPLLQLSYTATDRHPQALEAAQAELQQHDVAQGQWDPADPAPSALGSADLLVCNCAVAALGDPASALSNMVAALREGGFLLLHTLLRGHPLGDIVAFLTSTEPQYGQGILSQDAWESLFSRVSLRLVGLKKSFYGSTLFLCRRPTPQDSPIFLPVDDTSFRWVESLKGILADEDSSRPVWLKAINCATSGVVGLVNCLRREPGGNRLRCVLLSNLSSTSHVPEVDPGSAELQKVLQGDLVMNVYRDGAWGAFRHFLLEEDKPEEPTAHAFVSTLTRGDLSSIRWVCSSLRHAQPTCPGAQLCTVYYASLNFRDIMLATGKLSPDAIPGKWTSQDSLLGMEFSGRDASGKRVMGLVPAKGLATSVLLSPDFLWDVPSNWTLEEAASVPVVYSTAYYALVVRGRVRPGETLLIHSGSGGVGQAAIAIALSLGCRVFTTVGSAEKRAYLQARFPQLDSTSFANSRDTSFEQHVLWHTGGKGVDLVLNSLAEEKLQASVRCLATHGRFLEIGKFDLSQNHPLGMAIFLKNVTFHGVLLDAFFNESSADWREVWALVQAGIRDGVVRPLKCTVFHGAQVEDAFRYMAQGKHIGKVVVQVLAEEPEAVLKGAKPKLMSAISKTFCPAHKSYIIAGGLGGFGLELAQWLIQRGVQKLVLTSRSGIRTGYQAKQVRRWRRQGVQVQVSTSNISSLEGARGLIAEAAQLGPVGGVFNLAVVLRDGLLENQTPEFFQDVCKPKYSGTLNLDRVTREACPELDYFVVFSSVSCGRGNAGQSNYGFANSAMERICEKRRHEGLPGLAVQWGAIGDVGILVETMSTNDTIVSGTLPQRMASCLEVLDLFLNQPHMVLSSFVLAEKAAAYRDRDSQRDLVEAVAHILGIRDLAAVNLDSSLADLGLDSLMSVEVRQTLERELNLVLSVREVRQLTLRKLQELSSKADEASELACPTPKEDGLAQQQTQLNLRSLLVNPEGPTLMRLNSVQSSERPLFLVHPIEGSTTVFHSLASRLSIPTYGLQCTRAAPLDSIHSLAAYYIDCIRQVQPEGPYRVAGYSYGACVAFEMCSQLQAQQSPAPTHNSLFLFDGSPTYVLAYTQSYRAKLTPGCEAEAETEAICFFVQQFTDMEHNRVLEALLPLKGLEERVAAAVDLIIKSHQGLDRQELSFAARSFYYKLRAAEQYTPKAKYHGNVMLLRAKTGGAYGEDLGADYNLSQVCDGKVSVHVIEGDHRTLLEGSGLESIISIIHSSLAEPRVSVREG
Description: Inhibition of fatty acid synthase in human OVCAR3 cells assessed as reduction in fatty acid synthesis at 8 ug/ml pretreated for 2 hrs followed by [U14C]-acetate addition measured after 2 hrs by scintillation counting method relative to control

MCF7 = experiment: cells; settings: Homo sapiens, MCF7, 72 h
MIA PaCa-2 = experiment: Antiproliferative activity against human MIAPaCa2 cells after 72 hrs by MTT assay; type: functional, cell-based; settings: MIA PaCa-2, 72 h
SK-BR-3 = experiment: Antiproliferative activity against human SKBR3 cells after 72 hrs by MTT assay; type: functional, cell-based; settings: SK-BR-3, 72 h
Rattus norvegicus [7] = experiment: Toxicity in Sprague-Dawley rats assessed as decrease in body weight at 33 mM, icv measured every day for 3 days; settings: in vivo, icv_or_intrathecal, 72 h, 33000 µM
OVCAR-3 = experiment: Antiproliferative activity against human OVCAR3 cells after 72 hrs by MTT assay; type: functional, cell-based; settings: OVCAR-3, 72 h
Rattus norvegicus [8] = experiment: Toxicity in Sprague-Dawley rats assessed as decrease in food intake at 30 mM, icv measured after 1 to 22 hrs; settings: in vivo, icv_or_intrathecal, 30000 µM
HCT-116 = experiment: Antiproliferative activity against human HCT116 cells after 72 hrs by MTT assay; type: functional, cell-based; settings: HCT-116, 72 h
PC-3 = experiment: Antiproliferative activity against human PC3 cells after 72 hrs by MTT assay; type: functional, cell-based; settings: PC-3, 72 h
Fibroblast = experiment: Antiproliferative activity against fibroblasts (unknown origin) after 72 hrs by MTT assay; type: cell-based
MDA-MB-231 = experiment: Antiproliferative activity against human MDA-MB-231 cells after 72 hrs by MTT assay; type: functional, cell-based; settings: MDA-MB-231, 72 h
Fatty acid synthase = Fatty acid synthase (Rattus norvegicus, UniProt P12785); experiment: Inhibition of fatty acid synthase in rat cytosolic hepatic extracts using acetyl CoA and malonyl CoA as substrate preincubated for 30 mins followed by acetyl CoA addition and subsequent incubation for 3 mins prior to malonyl CoA addition measured after 10 mins in presence of NADPH by spectrophotometric method
Chain of Fatty acid synthase (P12785 whole entry): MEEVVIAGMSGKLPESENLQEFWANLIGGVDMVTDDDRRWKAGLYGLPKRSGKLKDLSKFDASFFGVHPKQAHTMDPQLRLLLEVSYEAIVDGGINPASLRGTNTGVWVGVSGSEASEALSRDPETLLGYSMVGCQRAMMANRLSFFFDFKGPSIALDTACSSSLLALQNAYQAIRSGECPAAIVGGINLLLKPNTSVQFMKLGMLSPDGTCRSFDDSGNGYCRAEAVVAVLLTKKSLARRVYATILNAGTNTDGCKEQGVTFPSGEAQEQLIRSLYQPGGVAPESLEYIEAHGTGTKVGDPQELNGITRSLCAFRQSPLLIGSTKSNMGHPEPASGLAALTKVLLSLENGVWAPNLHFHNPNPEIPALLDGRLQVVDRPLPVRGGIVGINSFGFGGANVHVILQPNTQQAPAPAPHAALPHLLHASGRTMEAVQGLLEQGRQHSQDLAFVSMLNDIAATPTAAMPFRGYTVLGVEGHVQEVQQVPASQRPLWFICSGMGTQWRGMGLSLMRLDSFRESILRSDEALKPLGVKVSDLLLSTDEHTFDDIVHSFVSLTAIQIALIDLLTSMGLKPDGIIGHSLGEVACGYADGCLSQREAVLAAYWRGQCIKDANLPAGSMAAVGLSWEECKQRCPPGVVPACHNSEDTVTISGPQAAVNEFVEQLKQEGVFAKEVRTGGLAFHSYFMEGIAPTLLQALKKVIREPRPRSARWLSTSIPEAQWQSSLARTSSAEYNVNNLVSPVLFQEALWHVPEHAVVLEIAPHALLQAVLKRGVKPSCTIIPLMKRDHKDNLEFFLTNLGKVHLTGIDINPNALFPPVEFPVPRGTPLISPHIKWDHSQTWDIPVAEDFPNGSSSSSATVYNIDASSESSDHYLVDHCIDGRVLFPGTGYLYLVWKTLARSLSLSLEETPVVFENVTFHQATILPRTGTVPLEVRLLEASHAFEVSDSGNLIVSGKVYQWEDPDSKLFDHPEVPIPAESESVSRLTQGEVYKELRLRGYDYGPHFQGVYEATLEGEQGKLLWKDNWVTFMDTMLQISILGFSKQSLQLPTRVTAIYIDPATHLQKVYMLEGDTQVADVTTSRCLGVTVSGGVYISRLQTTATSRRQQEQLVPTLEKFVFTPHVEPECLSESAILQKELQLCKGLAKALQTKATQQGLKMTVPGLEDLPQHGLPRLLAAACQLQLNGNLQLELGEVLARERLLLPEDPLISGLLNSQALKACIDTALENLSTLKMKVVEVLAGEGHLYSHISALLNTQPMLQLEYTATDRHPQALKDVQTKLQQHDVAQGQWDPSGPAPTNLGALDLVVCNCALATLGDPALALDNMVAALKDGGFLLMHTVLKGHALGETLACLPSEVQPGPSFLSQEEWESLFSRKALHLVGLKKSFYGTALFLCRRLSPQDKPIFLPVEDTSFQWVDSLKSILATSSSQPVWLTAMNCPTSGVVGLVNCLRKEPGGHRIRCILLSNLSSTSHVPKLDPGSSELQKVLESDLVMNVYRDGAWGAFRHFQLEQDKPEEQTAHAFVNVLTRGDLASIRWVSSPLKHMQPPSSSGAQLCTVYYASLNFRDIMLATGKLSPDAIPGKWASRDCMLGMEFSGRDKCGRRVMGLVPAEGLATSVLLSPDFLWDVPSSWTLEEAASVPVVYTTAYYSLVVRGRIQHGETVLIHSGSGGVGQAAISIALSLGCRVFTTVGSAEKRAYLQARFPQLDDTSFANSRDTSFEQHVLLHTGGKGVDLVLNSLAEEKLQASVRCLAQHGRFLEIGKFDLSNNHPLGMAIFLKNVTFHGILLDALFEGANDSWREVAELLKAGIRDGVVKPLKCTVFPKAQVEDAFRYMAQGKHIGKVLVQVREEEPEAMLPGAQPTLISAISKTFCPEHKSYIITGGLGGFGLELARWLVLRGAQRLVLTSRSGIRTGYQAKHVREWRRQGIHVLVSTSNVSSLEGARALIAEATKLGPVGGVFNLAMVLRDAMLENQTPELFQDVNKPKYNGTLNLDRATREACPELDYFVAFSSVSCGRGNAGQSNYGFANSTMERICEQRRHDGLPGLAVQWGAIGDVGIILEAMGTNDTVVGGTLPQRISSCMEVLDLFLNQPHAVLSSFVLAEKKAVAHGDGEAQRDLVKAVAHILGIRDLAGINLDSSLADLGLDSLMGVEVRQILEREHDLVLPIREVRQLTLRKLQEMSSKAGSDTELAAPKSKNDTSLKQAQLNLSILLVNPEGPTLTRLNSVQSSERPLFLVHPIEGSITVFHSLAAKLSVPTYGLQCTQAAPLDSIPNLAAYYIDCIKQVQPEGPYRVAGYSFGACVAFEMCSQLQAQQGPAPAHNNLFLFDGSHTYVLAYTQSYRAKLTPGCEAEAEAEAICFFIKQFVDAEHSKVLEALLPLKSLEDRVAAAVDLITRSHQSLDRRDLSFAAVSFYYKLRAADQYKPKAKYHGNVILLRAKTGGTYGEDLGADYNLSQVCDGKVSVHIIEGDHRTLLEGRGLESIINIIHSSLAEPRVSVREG

[9] = molecular target: Ribosomal protein S6 kinase beta-1 (Homo sapiens) (UniProt P23443); experiment: Inhibition of S6K1 phosphorylation at T389 in human OVCAR3 cells at 29.74 uM after 24 hrs by Western blot analysis; type: cell-based

| SMILES | IC50 [2] [µM] | IC50 (MCF7) [µM] | IC50 (MIA PaCa-2) [µM] | IC50 (SK-BR-3) [µM] | IC50 (OVCAR-3) [µM] | IC50 (HCT-116) [µM] | IC50 (PC-3) [µM] | IC50 (MDA-MB-231) [µM] | IC50 (Fibroblast) [µM] | also measured |
| --- | --- | --- | --- | --- | --- | --- | --- | --- | --- | --- |
| C=C1C(=O)OC(CCCCCCCC)C1C(=O)O (racemic) | – | 27.3 | 21.8 | 19.8 | 21.9 | 46.4 | 26.8 | 43.8 | 63.2 | Activity (Mus musculus [4]): Toxic; Activity (Mus musculus [5]): Toxic; inhibition [6]: 38%; Activity (Rattus norvegicus [7]): Toxic; Activity (Rattus norvegicus [8]): Toxic |
| C=C1C(=O)O[C@@H](CCCCCCCC)[C@@H]1C(=O)O | – | 46.4 | 25.3 | 38.2 | 17.9 | 74.8 | 34.3 | 57.7 | > 117 | IC50 (Fatty acid synthase): 440 to 498 µM |
| C=C1C(=O)O[C@@H](CCCCCCCC)[C@@H]1CO | – | – | – | – | – | – | – | – | – | inhibition [9]: Active |

More lines, main results first:

| IC50 [2] [µM] | IC50 (MCF7) [µM] | IC50 (MIA PaCa-2) [µM] | IC50 (SK-BR-3) [µM] | IC50 (OVCAR-3) [µM] | IC50 (HCT-116) [µM] | IC50 (PC-3) [µM] | IC50 (MDA-MB-231) [µM] | SMILES | IC50 (Fibroblast) [µM] | also measured |
| --- | --- | --- | --- | --- | --- | --- | --- | --- | --- | --- |
| 15.7 | – | – | – | – | – | – | – | CCCCCCCCC1OC(=O)C(CSCCNC(=O)CCNC(=O)[C@H](O)C(C)(C)COP(=O)(O)OP(=O)(O)OC[C@H]2O[C@@H](n3cnc4c(N)ncnc43)[C@H](O)[C@@H]2OP(=O)(O)O)C1CO (mixture of isomers) | – | Activity (Rattus norvegicus [1]): Non-Toxic; Activity (Mus musculus [3]): Non-Toxic |
| 1.1 | – | – | – | – | – | – | – | CCCCCCCCC1OC(=O)C(CSCCNC(=O)CCNC(=O)[C@H](O)C(C)(C)COP(=O)(O)OP(=O)(O)OC[C@H]2O[C@@H](n3cnc4c(N)ncnc43)[C@H](O)[C@@H]2OP(=O)(O)O)C1C(=O)O (mixture of isomers) | – | – |

Reference: ChEMBL document CHEMBL4017443, “(-)-UB006: A new fatty acid synthase inhibitor and cytotoxic agent without anorexic side effects” (Eur J Med Chem, 2017)
